Test results published in paper PMC10353390, “Biological and Structural Analyses of New Potent Allosteric Inhibitors of HIV-1 Integrase” (Antimicrobial Agents and Chemotherapy, 2023).

Legend:
[1] = target: CCD of HIV-1 IN and IBD of LEDGF/p75 (Human immunodeficiency virus type 1 group M subtype B, UniProt P12497); test: biochemical
Method: The INLAIs were tested for the ability to inhibit the HIV-1 IN-LEDGF/p75 interaction in a homogeneous time-resolved fluorescence (HTRF) assay. Our assays used either full-length IN and LEDGF/p75 proteins or their respective minimally sufficient interaction domains: the CCD of HIV-1 IN and the IBD of LEDGF/p75 (Table 1).
HTRF-based CCD-IBD interaction, IN-LEDGF/p75 interaction and IN multimerization assays were performed as described previously ([12]).

[2] = system: HIV-1 strains resistant to INSTIs, NRTIs, NNRTIs or PIs; type: cell-based
Method: To this end, we used both recombinant viruses constructed by introducing described drug resistance mutations into NL4-3 HIV-1 clone as well as drug-resistant clinical HIV-1 isolates.
(§1) MT4 cells growing exponentially at the density of 10^6/mL were infected with HIV-1 strain NL4-3 at a multiplicity of infection (MOI) of 0.001 for 2 h in the presence of different concentrations of compounds, and the CellTiter-Glo luminescent reagent (Promega) was used to quantify cell viability as described previously ([12]).

[3] = target: HIV-1 IN-LEDGF/p75 interaction (Human immunodeficiency virus type 1 group M subtype B, UniProt P12497); test: biochemical
[4] = system: NL4-3 HIV-1 with INLAI-selected IN single point mutations; type: cell-based
[5] = target: T1, HIV-1 IN (Human immunodeficiency virus type 1 group M subtype B, UniProt P12497); test: HTRF IN multimerization assay; type: biochemical; conditions: mean ± SD
T1 construct: made in house
Excerpt: A key property of INLAIs is the ability to promote HIV-1 IN homo-multimerization ([39][–][42]). […] The maximal signal (plateau) in our IN aggregation assay corresponds to the highest HTRF signal increase under saturating INLAI concentration, relative to baseline level. Thus, MUT916, MUT884, MUT871, and MUT872 increased HIV-1 IN aggregation 3.7 to 4.4-fold, while BDM-2, BI-224436, and S-I-82 did so 5 to 6-fold (Table 1).

[6] = system: recombinant NL4-3 viruses with polymorphisms at IN positions 124 and 125; test: Multiple-round infection of MT4 cells with recombinant NL4-3 viruses polymorphic at IN positions 124 and 125; type: cell-based, HIV-1
Excerpt: Located on the HIV-1 IN CCD dimerization interface, the principal INLAI binding pocket overlaps with a hot spot of amino acid sequence polymorphism involving IN residues 124 and 125 ([16]). To test if the new INLAIs maintained antiviral activity against major polymorphisms, we introduced all major combinations of residues found in circulating HIV-1 strains at positions 124 and 125 into NL4-3 HIV-1 molecular clone. In total, we evaluated 15 such combinations that collectively covered 98% of all HIV-1 clade polymorphisms involving these positions ([48]). To gauge effects on the antiviral activity, we calculated the EC50 fold change (FC) relative to wild type NL4-3 HIV-1 strain that features Thr124 and Thr125 (TT; specific polymorphisms are referred to by a single letter amino acid code).
as §1

[7] = system: HXB2 HIV-1 strain; test: Multiple-round infection assay in MT4 cells, HXB2; type: cell-based; conditions: Human immunodeficiency virus 1, HXB2; multiple-round infection, MT4 cells; mean ± SD, n > 5; read-out: EC50 HXB2
Method: Antiretroviral activity of BDM-2 and its analogs was first evaluated in lymphoblastoid cell line MT4 and in primary human T lymphocytes using NL4-3 and HXB2 laboratory HIV-1 isolates.
as §1

[8] = Cytotoxicity assay in MT4 cells; type: cell-based; conditions: human, MT4 cells (proliferating human T-cell line), CellTiter-Glo
Excerpt: Growth inhibition was monitored in a proliferating human T-cell line (MT4) with different concentrations of compounds, using the CellTiter-Glo luminescent reagent (Promega), as previously described ([12]).

[9] = system: VSV-G-pseudotyped NL4-3Δenv-luc; test: microbe, parasite or virus in culture; type: cell-based, HIV-1
[10] = system: primary HIV-1 isolates with polymorphisms at IN positions 124 and 125; test: Multiple-round infection of MT4 cells with primary HIV-1 isolates polymorphic at IN positions 124 and 125; type: cell-based; conditions: primary isolate
Method: Next, we evaluated the potency of the BDM-2 series of INLAIs against several primary HIV-1 isolates with polymorphisms at IN positions 124 and 125.
as §1

[11] = system: NL4-3 HIV-1 strain; test: Multiple-round infection assay in MT4 cells, NL4-3; type: cell-based; conditions: MT4 cells
[12] = INSTI-resistant, NL4-3 background

SMILES: Cc1ccc(C2CC2)c(-c2cc(F)c3c(c2C)CCCO3)c1[C@H](OC1CC1)C(=O)O [MUT916]
- IC50 [1]: 19 ± 8 nM
- Fold change in EC50 relative to NL4-3, E92Q [2, 12]: 1
- Fold change in EC50 relative to NL4-3, G140S [2, 12]: 1
- Fold change in EC50 relative to NL4-3, G140S/Q148H [2, 12]: 1
- Fold change in EC50 relative to NL4-3, N155H [2, 12]: 1
- Fold change in EC50 relative to NL4-3, Q148H [2, 12]: 1
- Fold change in EC50 relative to NL4-3, Y143R [2, 12]: 0.4
- Fold change in EC50 relative to NL4-3, NLAY351717 ([2]; NRTI-resistant clone): 1
- Fold change in EC50 relative to NL4-3, NLAY351753 ([2]; NRTI/NNRTI-resistant clone): 2
- Fold change in EC50 relative to NL4-3, K103N/Y181C ([2]; NRTI/NNRTIs group, NL4-3 background): 1
- Fold change in EC50 relative to NL4-3, ARP-4595 ([2]; PI-resistant virus): 2
- Fold change in EC50 relative to NL4-3, ARP-4596 ([2]; PI-resistant virus): 1
- Fold change in EC50 relative to NL4-3, ARP-11801 ([2]; PI-resistant virus): 2
- Fold change in EC50 relative to NL4-3, ARP-11803 ([2]; PI-resistant virus): 2
- Fold change in EC50 relative to NL4-3, ARP-11807 ([2]; PI-resistant virus): 2
- Fold change in EC50 relative to NL4-3, ARP-11808 ([2]; PI-resistant virus): 2
- IC50 [3]: 46 ± 16 nM
- EC50 fold change compared to wild type NL4-3, A128T [4]: 4
- EC50 fold change compared to wild type NL4-3, H171Q [4]: 1
- EC50 fold change compared to wild type NL4-3, N222K [4]: 3
- EC50 fold change compared to wild type NL4-3, T174I [4]: 14
- EC50 fold change compared to wild type NL4-3, Y99H [4]: 3
- AC50 ([5]; concentration for 50% maximum activation of multimerization): 22 ± 2 nM
- IN multimerization Plateau ([5]; maximum multimerization reached versus baseline): 370 ± 60%
- Fold change in EC50 relative to parental NL4-3, AA ([6]; recombinant NL4-3, IN 124/125 AA): 1
- Fold change in EC50 relative to parental NL4-3, AM ([6]; recombinant NL4-3, IN 124/125 AM): 0.2
- Fold change in EC50 relative to parental NL4-3, AT ([6]; recombinant NL4-3, IN 124/125 AT): 0.5
- Fold change in EC50 relative to parental NL4-3, AV ([6]; recombinant NL4-3, IN 124/125 AV): 0.4
- Fold change in EC50 relative to parental NL4-3, GA ([6]; recombinant NL4-3, IN 124/125 GA): 1
- Fold change in EC50 relative to parental NL4-3, GT ([6]; recombinant NL4-3, IN 124/125 GT): 1
- Fold change in EC50 relative to parental NL4-3, NA ([6]; recombinant NL4-3, IN 124/125 NA): 4
- Fold change in EC50 relative to parental NL4-3, NT ([6]; recombinant NL4-3, IN 124/125 NT): 1
- Fold change in EC50 relative to parental NL4-3, NV ([6]; recombinant NL4-3, IN 124/125 NV): 0.4
- Fold change in EC50 relative to parental NL4-3, SA ([6]; recombinant NL4-3, IN 124/125 SA): 1
- Fold change in EC50 relative to parental NL4-3, ST ([6]; recombinant NL4-3, IN 124/125 ST): 1
- Fold change in EC50 relative to parental NL4-3, TA ([6]; recombinant NL4-3, IN 124/125 TA): 1
- Fold change in EC50 relative to parental NL4-3, TM ([6]; recombinant NL4-3, IN 124/125 TM): 0.2
- Fold change in EC50 relative to parental NL4-3, TV ([6]; recombinant NL4-3, IN 124/125 TV): 0.4
- EC50 [7]: 8.8 ± 0.8 nM
- CC50 [8]: 78000 ± 6000 nM
- EC50 ratio (single/multiple-round infection) [9]: 105
- EC50 ([9]; Human immunodeficiency virus 1, NL43, MT4, read-out: EC50 in single-round infection): 2100 ± 200 nM
- Fold change in EC50 relative to parental NL4-3, CAM2BBY (CRF02) ([10]; IN 124/125 AA): 1
- Fold change in EC50 relative to parental NL4-3, E0836M4 (D) ([10]; IN 124/125 AA): 1
- Fold change in EC50 relative to parental NL4-3, KER2008 (A) ([10]; IN 124/125 AA): 1
- Fold change in EC50 relative to parental NL4-3, NP1525 (CRF01) ([10]; IN 124/125 AA): 1
- Fold change in EC50 relative to parental NL4-3, NP1695 (CRF02) ([10]; IN 124/125 AA): 2
- Fold change in EC50 relative to parental NL4-3, TZA125 (C) ([10]; IN 124/125 AA): 0.4
- Fold change in EC50 relative to parental NL4-3, KSM4030 (A) ([10]; IN 124/125 GA): 1
- Fold change in EC50 relative to parental NL4-3, vGA (C) ([10]; IN 124/125 GA): 5
- Fold change in EC50 relative to parental NL4-3, 99ET14 (C) ([10]; IN 124/125 NA): 2
- Fold change in EC50 relative to parental NL4-3, NP1538 (B) ([10]; IN 124/125 NA): 2
- Fold change in EC50 relative to parental NL4-3, vNA_1 (B) ([10]; IN 124/125 NA): 4
- Fold change in EC50 relative to parental NL4-3, vNA_2 (CRF02) ([10]; IN 124/125 NA): 10
- Fold change in EC50 relative to parental NL4-3, vNV (B) ([10]; IN 124/125 NV): 1
- Fold change in EC50 relative to parental NL4-3, vSA_1 (B) ([10]; IN 124/125 SA): 3
- Fold change in EC50 relative to parental NL4-3, vSA_2 (CRF02) ([10]; IN 124/125 SA): 4
- Fold change in EC50 relative to parental NL4-3, vTA_1 (B) ([10]; IN 124/125 TA): 2
- Fold change in EC50 relative to parental NL4-3, vTA_2 (CRF02) ([10]; IN 124/125 TA): 2
- EC90 ([11]; Human immunodeficiency virus 1, NL43, multiple-round infection, from dose response curves, read-out: EC90 NL4-3): 30 ± 15 nM
- EC50 ([11]; Human immunodeficiency virus 1, NL43, multiple-round infection, mean ± SD, n > 5, read-out: EC50 NL4-3): 20 ± 9 nM
- Selectivity index CC50/EC50 NL4-3 [11]: 3,900
